# Measurements from ChEMBL document CHEMBL4304811, “Development of a Water-Soluble Indolylmaleimide Derivative IM-93 Showing Dual Inhibition of Ferroptosis and NETosis” (ACS Med Chem Lett, 2019).
# Active and inactive are the calls of the source. The rule behind the calls is not given here.
# Experiments:
# [1] = tested on: Serine/threonine-protein kinase B-raf (Homo sapiens), P15056 [V600E]; assay: Binding affinity to human partial length BRAF V600E mutant (S429 to E741 residues) expressed in mammalian expression system assessed as residual binding level at 10 uM by Kinomescan method relative to control
# Sequence of Serine/threonine-protein kinase B-raf (Homo sapiens), P15056 [V600E] (P15056 whole entry V600E, the tested form may be a part): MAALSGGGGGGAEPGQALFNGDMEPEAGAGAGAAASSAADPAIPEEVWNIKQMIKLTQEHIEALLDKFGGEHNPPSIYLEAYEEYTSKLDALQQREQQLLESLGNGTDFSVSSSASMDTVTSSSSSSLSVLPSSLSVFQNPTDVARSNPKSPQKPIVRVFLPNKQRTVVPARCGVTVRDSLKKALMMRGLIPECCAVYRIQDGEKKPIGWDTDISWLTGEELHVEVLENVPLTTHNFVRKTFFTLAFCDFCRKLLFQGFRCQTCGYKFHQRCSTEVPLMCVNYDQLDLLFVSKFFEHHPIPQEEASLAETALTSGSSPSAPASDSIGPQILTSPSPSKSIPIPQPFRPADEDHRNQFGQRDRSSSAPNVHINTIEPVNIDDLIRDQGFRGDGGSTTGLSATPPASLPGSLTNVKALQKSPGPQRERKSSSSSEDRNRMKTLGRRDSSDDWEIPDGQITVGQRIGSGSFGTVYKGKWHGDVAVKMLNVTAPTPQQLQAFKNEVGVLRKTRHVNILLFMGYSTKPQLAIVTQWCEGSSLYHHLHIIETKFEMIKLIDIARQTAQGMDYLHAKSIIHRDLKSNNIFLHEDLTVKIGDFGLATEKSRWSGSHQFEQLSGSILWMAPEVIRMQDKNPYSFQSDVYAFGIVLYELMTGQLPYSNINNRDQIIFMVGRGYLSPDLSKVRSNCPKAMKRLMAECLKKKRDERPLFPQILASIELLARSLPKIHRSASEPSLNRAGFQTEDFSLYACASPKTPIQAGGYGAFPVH
# [2] = biological target: Calcium/calmodulin-dependent protein kinase type II subunit beta (Homo sapiens) (UniProt Q13554); assay: Binding affinity to wild-type human partial length CAMK2B (M1 to Q380 residues) expressed in bacterial expression system assessed as residual binding level at 10 uM by Kinomescan method relative to control
# Sequence of Calcium/calmodulin-dependent protein kinase type II subunit beta (Homo sapiens) (Q13554 whole entry, the tested form may be a part): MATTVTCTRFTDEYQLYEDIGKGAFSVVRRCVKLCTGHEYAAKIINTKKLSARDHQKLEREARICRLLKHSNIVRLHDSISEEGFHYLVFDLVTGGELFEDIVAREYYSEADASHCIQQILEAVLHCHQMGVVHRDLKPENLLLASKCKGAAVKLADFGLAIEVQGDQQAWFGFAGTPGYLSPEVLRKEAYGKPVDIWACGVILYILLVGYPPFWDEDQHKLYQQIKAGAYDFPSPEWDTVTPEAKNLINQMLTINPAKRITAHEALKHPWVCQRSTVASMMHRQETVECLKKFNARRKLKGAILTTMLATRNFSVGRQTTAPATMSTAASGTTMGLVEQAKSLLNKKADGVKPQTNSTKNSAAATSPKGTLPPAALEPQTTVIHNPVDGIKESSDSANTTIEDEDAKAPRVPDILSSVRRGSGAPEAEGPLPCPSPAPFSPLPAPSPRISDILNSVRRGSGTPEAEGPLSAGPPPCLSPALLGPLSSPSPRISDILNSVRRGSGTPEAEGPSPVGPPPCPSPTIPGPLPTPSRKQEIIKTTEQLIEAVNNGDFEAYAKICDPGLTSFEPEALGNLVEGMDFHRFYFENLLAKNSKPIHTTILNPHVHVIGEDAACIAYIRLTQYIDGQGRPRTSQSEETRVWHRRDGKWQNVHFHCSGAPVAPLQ
# [3] = biological target: Tyrosine-protein kinase CSK (Homo sapiens) (UniProt P41240); assay: Binding affinity to wild-type human full length CSK (M1 to L450 residues) expressed in bacterial expression system assessed as residual binding level at 10 uM by Kinomescan method relative to control
# [4] = biological target: Death-associated protein kinase 2 (Homo sapiens) (UniProt Q9UIK4); assay: Binding affinity to wild-type human full length DAPK2 (M1 to S370 residues) expressed in bacterial expression system assessed as residual binding level at 10 uM by Kinomescan method relative to control
# Sequence of Death-associated protein kinase 2 (Homo sapiens) (Q9UIK4 whole entry, looked up, the tested form may be a part): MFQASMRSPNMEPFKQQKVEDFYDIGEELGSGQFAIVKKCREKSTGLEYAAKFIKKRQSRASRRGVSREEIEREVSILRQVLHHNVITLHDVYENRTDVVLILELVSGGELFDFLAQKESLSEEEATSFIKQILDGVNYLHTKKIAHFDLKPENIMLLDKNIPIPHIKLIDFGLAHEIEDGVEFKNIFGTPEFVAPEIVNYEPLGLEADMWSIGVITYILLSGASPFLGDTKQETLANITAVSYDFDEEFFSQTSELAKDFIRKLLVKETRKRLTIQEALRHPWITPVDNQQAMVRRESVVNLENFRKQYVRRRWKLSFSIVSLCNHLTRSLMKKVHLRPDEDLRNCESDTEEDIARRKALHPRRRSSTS
# [5] = biological target: Ephrin type-A receptor 1 (Homo sapiens) (UniProt P21709); assay: Binding affinity to wild-type human partial length EPHA1 (V588 to I913 residues) expressed in bacterial expression system assessed as residual binding level at 10 uM by Kinomescan method relative to control
# [6] = biological target: Mitogen-activated protein kinase 1 (Homo sapiens) (UniProt P28482); assay: Binding affinity to wild-type human full length ERK2 (M1 to S360 residues) expressed in bacterial expression system assessed as residual binding level at 10 uM by Kinomescan method relative to control
# Sequence of Mitogen-activated protein kinase 1 (Homo sapiens) (P28482 whole entry, the tested form may be a part): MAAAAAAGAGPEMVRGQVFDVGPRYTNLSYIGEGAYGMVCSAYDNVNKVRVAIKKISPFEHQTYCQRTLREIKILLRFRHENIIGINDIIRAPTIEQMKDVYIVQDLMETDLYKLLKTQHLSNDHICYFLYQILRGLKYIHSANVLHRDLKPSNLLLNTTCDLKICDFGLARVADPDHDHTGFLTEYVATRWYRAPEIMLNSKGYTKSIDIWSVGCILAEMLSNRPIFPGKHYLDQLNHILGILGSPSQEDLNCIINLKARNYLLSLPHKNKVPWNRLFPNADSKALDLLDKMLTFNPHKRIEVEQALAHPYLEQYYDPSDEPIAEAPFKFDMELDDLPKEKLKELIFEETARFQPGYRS
# [7] = biological target: Serine/threonine-protein kinase/endoribonuclease IRE1 (Homo sapiens) (UniProt O75460); assay: Binding affinity to wild-type human partial length ERN1 (S551 to E852 residues) expressed in mammalian expression system assessed as residual binding level at 10 uM by Kinomescan method relative to control
# Sequence of Serine/threonine-protein kinase/endoribonuclease IRE1 (Homo sapiens) (O75460 19-977 limits assumed): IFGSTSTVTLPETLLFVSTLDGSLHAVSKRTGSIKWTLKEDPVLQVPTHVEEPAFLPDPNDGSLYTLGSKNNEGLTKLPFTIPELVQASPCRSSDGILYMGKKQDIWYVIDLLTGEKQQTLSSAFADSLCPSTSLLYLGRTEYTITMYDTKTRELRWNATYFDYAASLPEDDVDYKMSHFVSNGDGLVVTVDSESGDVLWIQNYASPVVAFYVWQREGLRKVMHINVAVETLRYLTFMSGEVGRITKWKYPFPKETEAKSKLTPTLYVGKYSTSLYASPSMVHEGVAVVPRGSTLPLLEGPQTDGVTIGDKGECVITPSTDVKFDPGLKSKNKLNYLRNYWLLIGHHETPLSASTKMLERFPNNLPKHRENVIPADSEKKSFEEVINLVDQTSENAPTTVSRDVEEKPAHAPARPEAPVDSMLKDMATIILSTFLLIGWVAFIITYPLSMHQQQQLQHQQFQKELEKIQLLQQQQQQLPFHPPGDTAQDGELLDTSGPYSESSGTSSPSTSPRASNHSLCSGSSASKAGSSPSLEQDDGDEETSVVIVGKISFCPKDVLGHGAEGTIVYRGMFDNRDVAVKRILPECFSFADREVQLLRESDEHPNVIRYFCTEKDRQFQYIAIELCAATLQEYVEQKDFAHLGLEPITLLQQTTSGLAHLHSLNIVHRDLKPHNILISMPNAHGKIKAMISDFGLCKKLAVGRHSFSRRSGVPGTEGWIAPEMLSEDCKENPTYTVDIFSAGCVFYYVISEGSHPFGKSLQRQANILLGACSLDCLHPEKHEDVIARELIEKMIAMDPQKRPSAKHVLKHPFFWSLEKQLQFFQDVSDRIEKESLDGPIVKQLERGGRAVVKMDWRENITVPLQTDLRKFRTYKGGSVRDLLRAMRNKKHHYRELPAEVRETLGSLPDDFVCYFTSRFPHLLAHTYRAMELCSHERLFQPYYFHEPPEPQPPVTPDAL
# [8] = tested on: eIF-2-alpha kinase GCN2 (Homo sapiens), Q9P2K8 [S808G]; assay: Binding affinity to wild-type human partial length GCN2 kinase domain 2 (R585 to T1018 residues) S808G mutant expressed in bacterial expression system assessed as residual binding level at 10 uM by Kinomescan method relative to control
# [9] = biological target: Glycogen synthase kinase-3 alpha (Homo sapiens) (UniProt P49840); assay: Binding affinity to wild-type human full length GSK3A (M1 to S483 residues) expressed in bacterial expression system assessed as residual binding level at 10 uM by Kinomescan method relative to control
# [10] = biological target: Homeodomain-interacting protein kinase 1 (Homo sapiens) (UniProt Q86Z02); assay: Binding affinity to wild-type human partial length HIPK1 (M146 to I555 residues) expressed in mammalian expression system assessed as residual binding level at 10 uM by Kinomescan method relative to control
# [11] = biological target: Inhibitor of nuclear factor kappa-B kinase subunit alpha (Homo sapiens) (UniProt O15111); assay: Binding affinity to wild-type human full length IKK-alpha (M1 to E745 residues) expressed in mammalian expression system assessed as residual binding level at 10 uM by Kinomescan method relative to control
# [12] = biological target: Serine/threonine-protein kinase LATS2 (Homo sapiens) (UniProt Q9NRM7); assay: Binding affinity to wild-type human partial length LATS2 (Q641 to V1088 residues) expressed in mammalian expression system assessed as residual binding level at 10 uM by Kinomescan method relative to control
# [13] = biological target: LIM domain kinase 1 (Homo sapiens) (UniProt P53667); assay: Binding affinity to wild-type human full length LIMK1 (M1 to D647 residues) expressed in bacterial expression system assessed as residual binding level at 10 uM by Kinomescan method relative to control
# [14] = biological target: Mitogen-activated protein kinase kinase kinase 15 (Homo sapiens) (UniProt Q6ZN16); assay: Binding affinity to wild-type human partial length MAP3K15 (T625 to L932 residues) expressed in mammalian expression system assessed as residual binding level at 10 uM by Kinomescan method relative to control
# [15] = biological target: Dual specificity mitogen-activated protein kinase kinase 6 (Homo sapiens) (UniProt P52564); assay: Binding affinity to wild-type human partial length MEK6 (K36 to D334 residues) expressed in bacterial expression system assessed as residual binding level at 10 uM by Kinomescan method relative to control
# [16] = biological target: Mitogen-activated protein kinase 11 (Homo sapiens) (UniProt Q15759); assay: Binding affinity to wild-type human full length p38-beta (M1 to Q364 residues) expressed in bacterial expression system assessed as residual binding level at 10 uM by Kinomescan method relative to control
# Sequence of Mitogen-activated protein kinase 11 (Homo sapiens) (Q15759 whole entry, the tested form may be a part): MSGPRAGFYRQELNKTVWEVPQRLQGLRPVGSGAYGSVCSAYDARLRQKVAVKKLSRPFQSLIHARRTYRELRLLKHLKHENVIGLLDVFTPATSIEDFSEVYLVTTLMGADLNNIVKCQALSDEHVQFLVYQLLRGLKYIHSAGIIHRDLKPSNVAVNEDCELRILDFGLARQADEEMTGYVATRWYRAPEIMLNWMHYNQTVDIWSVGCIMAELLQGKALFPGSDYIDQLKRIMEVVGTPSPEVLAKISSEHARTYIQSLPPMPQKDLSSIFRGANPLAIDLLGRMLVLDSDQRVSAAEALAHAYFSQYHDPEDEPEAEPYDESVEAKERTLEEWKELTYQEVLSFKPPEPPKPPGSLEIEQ
# [17] = biological target: Phosphatidylinositol 4-phosphate 5-kinase type-1 gamma (Homo sapiens) (UniProt O60331); assay: Binding affinity to wild-type human partial length PIP5K1C (M1 to T668 residues) expressed in mammalian expression system assessed as residual binding level at 10 uM by Kinomescan method relative to control
# [18] = biological target: Protein kinase C theta type (Homo sapiens) (UniProt Q04759); assay: Binding affinity to wild-type human partial length PRKCQ (L350 to S706 residues) expressed in bacterial expression system assessed as residual binding level at 10 uM by Kinomescan method relative to control
# Sequence of Protein kinase C theta type (Homo sapiens) (Q04759 whole entry, looked up, the tested form may be a part): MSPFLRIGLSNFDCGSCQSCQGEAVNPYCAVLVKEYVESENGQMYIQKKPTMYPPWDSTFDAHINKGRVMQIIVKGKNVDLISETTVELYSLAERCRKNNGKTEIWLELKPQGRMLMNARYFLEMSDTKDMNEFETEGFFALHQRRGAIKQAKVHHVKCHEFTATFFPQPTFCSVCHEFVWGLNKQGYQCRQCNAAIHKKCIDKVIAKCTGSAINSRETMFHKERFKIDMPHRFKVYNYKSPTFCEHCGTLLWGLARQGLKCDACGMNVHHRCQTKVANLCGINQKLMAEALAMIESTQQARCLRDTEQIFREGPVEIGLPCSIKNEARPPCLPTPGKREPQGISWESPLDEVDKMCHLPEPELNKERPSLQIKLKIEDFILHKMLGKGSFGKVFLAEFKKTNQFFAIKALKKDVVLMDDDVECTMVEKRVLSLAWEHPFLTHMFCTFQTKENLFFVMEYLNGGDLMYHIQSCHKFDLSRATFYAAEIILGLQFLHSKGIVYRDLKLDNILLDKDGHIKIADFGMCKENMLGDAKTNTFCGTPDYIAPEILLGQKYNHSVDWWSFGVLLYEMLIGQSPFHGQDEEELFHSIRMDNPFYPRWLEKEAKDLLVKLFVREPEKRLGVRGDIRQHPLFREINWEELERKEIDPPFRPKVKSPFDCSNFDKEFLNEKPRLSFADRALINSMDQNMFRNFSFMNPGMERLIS
# [19] = biological target: Rho-associated protein kinase 2 (Homo sapiens) (UniProt O75116); assay: Binding affinity to wild-type human partial length ROCK2 (M1 to T431 residues) expressed in mammalian expression system assessed as residual binding level at 10 uM by Kinomescan method relative to control
# [20] = biological target: Serine/threonine-protein kinase SBK1 (Homo sapiens) (UniProt Q52WX2); assay: Binding affinity to wild-type human partial length SBK1 (P23 to P348 residues) expressed in mammalian expression system assessed as residual binding level at 10 uM by Kinomescan method relative to control
# [21] = biological target: NUAK family SNF1-like kinase 2 (Homo sapiens) (UniProt Q9H093); assay: Binding affinity to wild-type human partial length SNARK (P22 to A333 residues) expressed in mammalian expression system assessed as residual binding level at 10 uM by Kinomescan method relative to control
# [22] = biological target: Serine/threonine-protein kinase VRK2 (Homo sapiens) (UniProt Q86Y07); assay: Binding affinity to wild-type human partial length VRK2 (M1 to T336 residues) expressed in mammalian expression system assessed as residual binding level at 10 uM by Kinomescan method relative to control
# HL-60 = assay: Cytoprotection against human HL60 cells assessed as inhibition of H2O2-induced cell death pretreated for 1 hr followed by H2O2 stimulation measured after 3 hrs by p-iodonitrotetrazolium violet dye based LDH assay; format: functional
# Neutrophil = assay: Inhibition of PMA-induced NETosis in human neutrophils assessed as inhibition of ROS production at 25 uM pretreated for 25 mins followed by PMA stimulation and measured after 20 mins by DCFH-DA based flow cytometry; format: functional, cell-based
# [23] = biological target: Protein-arginine deiminase type-4 (Homo sapiens) (UniProt Q9UM07); assay: Inhibition of recombinant human PAD4 at 200 uM using N-alpha-benzoyl-L-arginine ethyl ester as substrate by fluorescence based analysis
# Sequence of Protein-arginine deiminase type-4 (Homo sapiens) (Q9UM07 whole entry): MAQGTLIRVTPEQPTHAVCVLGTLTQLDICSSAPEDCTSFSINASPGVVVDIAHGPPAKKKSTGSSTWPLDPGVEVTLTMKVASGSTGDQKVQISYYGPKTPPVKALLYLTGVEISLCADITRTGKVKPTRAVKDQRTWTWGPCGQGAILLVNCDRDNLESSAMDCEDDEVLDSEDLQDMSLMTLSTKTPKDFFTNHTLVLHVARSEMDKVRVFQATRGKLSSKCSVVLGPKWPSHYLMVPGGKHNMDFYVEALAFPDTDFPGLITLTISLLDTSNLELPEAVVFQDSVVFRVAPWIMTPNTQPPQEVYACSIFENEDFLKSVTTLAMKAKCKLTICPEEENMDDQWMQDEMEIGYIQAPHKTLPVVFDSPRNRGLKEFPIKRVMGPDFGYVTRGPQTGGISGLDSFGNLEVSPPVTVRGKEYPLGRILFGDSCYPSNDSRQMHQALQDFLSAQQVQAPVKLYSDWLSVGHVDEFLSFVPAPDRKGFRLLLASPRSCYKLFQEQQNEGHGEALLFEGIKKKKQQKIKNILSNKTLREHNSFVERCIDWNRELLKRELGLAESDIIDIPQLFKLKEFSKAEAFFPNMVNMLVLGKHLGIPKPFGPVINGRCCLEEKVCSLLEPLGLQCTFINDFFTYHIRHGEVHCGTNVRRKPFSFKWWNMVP
compound,measurement,setting,value
CC(C)N1C(=O)C(NCCCN(C)C)=C(c2cn(C)c3ccccc23)C1=O.Cl,Activity,[1],88%
same,Activity,[2],100%
same,Activity,[3],96%
same,Activity,[4],100%
same,Activity,[5],85%
same,Activity,[6],95%
same,Activity,[7],85%
same,Activity,[8],100%
same,Activity,[9],83%
same,Activity,[10],100%
same,Activity,[11],81%
same,Activity,[12],88%
same,Activity,[13],100%
same,Activity,[14],94%
same,Activity,[15],99%
same,Activity,[16],96%
same,Activity,[17],96%
same,Activity,[18],100%
same,Activity,[19],100%
same,Activity,[20],100%
same,Activity,[21],79%
same,Activity,[22],95%
same,IC50,HL-60,450 nM
same,inhibition,Neutrophil,inactive
same,inhibition,[23],inactive
